Assay results published in US20260272895A1, “METHODS AND KITS FOR DELIVERY OF COMPOUNDS INTO CELLS” (Yale University, priority 2023, published 2026).

What was measured:
[1] = target: T1, SLCO1A2 (Homo sapiens, UniProt P46721); test: Compound uptake in HEK293 cells transfected with SLCO1A2; type: cell-based; set-up: FLAG
T1 sequence (P46721 1-670): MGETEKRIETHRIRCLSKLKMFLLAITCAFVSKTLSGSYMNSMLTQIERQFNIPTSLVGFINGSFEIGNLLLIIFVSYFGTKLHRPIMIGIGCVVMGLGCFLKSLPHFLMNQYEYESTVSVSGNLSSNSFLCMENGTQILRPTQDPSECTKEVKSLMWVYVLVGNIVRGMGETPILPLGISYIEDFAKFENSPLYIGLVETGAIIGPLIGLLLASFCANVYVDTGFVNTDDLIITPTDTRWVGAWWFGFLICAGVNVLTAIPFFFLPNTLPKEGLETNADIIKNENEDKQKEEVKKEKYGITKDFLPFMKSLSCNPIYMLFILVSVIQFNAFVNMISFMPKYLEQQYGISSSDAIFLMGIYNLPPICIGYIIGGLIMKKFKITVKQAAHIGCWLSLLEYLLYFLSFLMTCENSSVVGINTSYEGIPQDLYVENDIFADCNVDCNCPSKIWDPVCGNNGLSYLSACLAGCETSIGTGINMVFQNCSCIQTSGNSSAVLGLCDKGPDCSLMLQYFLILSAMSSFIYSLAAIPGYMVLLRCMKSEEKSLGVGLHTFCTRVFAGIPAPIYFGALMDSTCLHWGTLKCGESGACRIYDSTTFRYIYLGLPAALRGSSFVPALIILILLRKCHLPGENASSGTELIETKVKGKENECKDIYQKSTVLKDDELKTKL
Procedure: (§1) HEK293 cells are cultured and seeded at ~60% confluency in 24-well plates and are transiently transfected with 250 ng of a candidate transporter and 1 μL transfection reagent (JetPRIME). After 2 days, cells are washed and novel fluorescent probes at different concentrations are added to the transport medium and incubated at 37° C., for at least 30 minutes. To terminate the transport, cells are washed with PBS and fixed with 4% paraformaldehyde. The colocalization of probe uptake and cells expressing the transporters is investigated by immunostaining the transporter which has a fused FLAG tag, using anti-FLAG 488. Before confocal imaging, nuclei are labeled with Hoechst 33342 and cells are mounted and imaged on a Leica SP8 confocal microscope.
(§2) For in vitro experiments, HEK293 cells were cultured and seeded in 24-well plates, reaching approximately 60% confluency. For transient transfection, 250 ng of a candidate transporter plasmid and 1 μL of transfection reagent (JetPRIME) were added to the cells. After a 2-day incubation period, the cells were washed, and novel fluorescent probes were introduced into the transport medium at various concentrations. The cells were then incubated at 37° C., for a minimum of 30 minutes to allow for uptake. To stop the transport process, the cells were washed with PBS and fixed using 4% paraformaldehyde. Immunostaining of the transporter, which was fused with a FLAG tag, was performed using an anti-FLAG 488 antibody. Before confocal imaging, the cell nuclei were labeled with Hoechst 33342. Finally, the cells were mounted and imaged using a Leica SP8 confocal microscope.

[2] = target: T2, Slco1a4 (Mus musculus, UniProt Q9EP96); test: Compound uptake in HEK293 cells transfected with Slco1a4; type: cell-based; set-up: FLAG; expressed in transfected cells
T2 sequence (Q9EP96 1-670): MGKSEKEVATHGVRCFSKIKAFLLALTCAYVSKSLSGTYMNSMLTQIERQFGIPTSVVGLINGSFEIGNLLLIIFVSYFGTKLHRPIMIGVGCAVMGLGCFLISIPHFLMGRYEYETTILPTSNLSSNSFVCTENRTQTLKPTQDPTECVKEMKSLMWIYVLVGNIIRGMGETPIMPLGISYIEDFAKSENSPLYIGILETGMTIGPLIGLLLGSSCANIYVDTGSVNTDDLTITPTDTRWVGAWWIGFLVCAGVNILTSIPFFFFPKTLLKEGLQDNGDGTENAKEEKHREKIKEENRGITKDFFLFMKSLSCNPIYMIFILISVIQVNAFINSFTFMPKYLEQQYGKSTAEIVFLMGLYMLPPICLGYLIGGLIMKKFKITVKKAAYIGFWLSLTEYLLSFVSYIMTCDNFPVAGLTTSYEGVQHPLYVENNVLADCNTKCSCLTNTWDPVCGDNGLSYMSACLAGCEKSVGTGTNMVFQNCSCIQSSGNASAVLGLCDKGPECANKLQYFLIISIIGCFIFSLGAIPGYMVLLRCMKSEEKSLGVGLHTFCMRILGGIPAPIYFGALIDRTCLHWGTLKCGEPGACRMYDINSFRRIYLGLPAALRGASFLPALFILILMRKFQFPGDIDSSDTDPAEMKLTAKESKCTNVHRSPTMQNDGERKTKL
Procedure: as §1, §2

| Compound | uptake in SLCO1A2 transfected HEK293 cells ([1]; concentration not given) | uptake in Slco1a4 transfected HEK293 cells ([2]; concentration not given) | uptake in SLCO1A2 transfected HEK293 cells ([1]; 10 μM) | uptake in Slco1a4 transfected HEK293 cells ([2]; 10 μM) |
| --- | --- | --- | --- | --- |
| O=S(=O)([O-])c1cc(S(=O)(=O)O)ccc1C1=c2cc3c4c(c2Oc2cc(Br)ccc21)CCC[N+]=4CCC3 [Compound 1, 2-(12-bromo-1,2,3,5,6,7-hexahydrochromeno[2,3-f]pyrido[3,2,1-ij]quinolin-4-ium-9-yl)-5-sulfobenzenesulfonate] | only those cells expressing the carrier SLCO1A2 (as evidenced by anti-FLAG labeling-green) take up compound 1 | only those cells expressing SLCO1A4 (as evidenced by anti-FLAG labeling-green) take up compound 1 |  |  |
| COc1cc2c(c(OC)c1OC)-c1ccc(OC)c(=O)cc1C(NS(=O)(=O)c1ccc(-c3c4ccc(N(C)C)cc4[o+]c4cc(N(C)C)ccc34)c(S(=O)(=O)[O-])c1)CC2 (stereo not shown) [Compound 47, 2-(3,6-bis(dimethylamino)xanthylium-9-yl)-5-(N-(1,2,3,10-tetramethoxy-9-oxo-5,6,7,9-tetrahydrobenzo[a]heptalen-7-yl)sulfamoyl)benzenesulfonate] |  |  | robust and selective uptake | robust and selective uptake |
